Read-outs that look alike come from different tables or passages of the source.
What was measured:
[1] = Cell toxicity (Celltiter-Glo) in HEK-Blue hTLR8 cells; conditions: human
Procedure: (§2) Purpose: HEK-Blue™ hTLR7 and HEK-Blue™ hTLR8 cells were used to detect the agonist and cytotoxic activities of compounds against hTLR7 and hTLR8.
(§3) The experimental steps were as shown below: • 1) Preparation of compound: The compound was prepared into a 20 mM stock solution with DMSO, and then the stock solution was diluted 3-fold in a gradient and added to a 96-well plate, for a total of 10 concentrations, with duplicate wells for each concentration. For negative control wells, 0.5 μL DMSO was added to each well. The final DMSO concentration was 0.5%. • 2) HEK-Blue™ hTLR7 or HEK-Blue™ hTLR8 cells were suspended in culture medium and then seeded into 96-well plates containing compounds at a cell count of 50,000 per well. The compounds and cells were incubated for 24 h at 37° C., 5% Co2. • 3) QUANTI-Blue was used for the detection solution: to a mixture of 1 mL of QB reagent and 1 mL of QB buffer was added 98 mL of sterile water, the mixture was mixed and dissolved, and then placed at room temperature for 10 min. • 4) Activity test of the compound: 20 μL of the culture supernatant in step 2) was added to each well of a 96-well plate containing 180 μL of QUANTI-Blue detection solution. After incubation at 37° C. for 1 h, the absorbance at 650 nm (OD650) was detected using a multifunctional microplate reader Flextation III. • 5) Detection of cell activity: The chemiluminescent signal (RLU) was detected using the multifunctional microplate reader Flextation III according to the instructions of Celltiter-Glo. • 6) Data analysis
Detection of cell activity: The calculation formula for cell activity % is as follows.
The cell activity % values were analyzed using GraphPad Prism software, and the compound dose-effect curves were fitted to calculate the CC50 values of the compounds.
Cell activity %=RLU compound/RLU DMSO Control*100%

CYP3A4 = biological target: T1, CYP3A4 (Homo sapiens, UniProt P08684); assay: Inhibition of human liver microsomal CYP3A4; type: in vitro ADME; conditions: human liver microsomes, 10 μM test substance
T1 construct: from tissue; host or cells: human liver microsomes
Procedure: (§1) Experimental purpose: The inhibitory effects of the test compounds on the major metabolizing enzymes CYP1A2, CYP2C19, CYP2D6 and CYP3A4 in microsomes were evaluated using the human liver microsomal system. Experimental method: The test substance was incubated with a suspension of human liver microsomes containing cytochrome P450 enzymes CYP1A2, CYP2C19, CYP2D6 and CYP3A4 at a concentration of 10 μM in the final incubation system. The known substrates were metabolized by the corresponding single enzymes to generate specific metabolites, and the metabolites were determined by UPLC-MS/MS method. The relative inhibition rate (%) was calculated by the percentage reduction of metabolite production by the test compound and solvent DMSO in the same time period. N is the concentration value of the probe substrate metabolite and it is assumed that the […] with or without inhibitor at 0 min is 0. N+inh is the metabolite concentration in the group with inhibitor, and Nveh is the metabolite concentration in the group without inhibitor. The results of the inhibition test of the compounds of the present invention on human liver microsomal CYP enzymes are shown in Table C.

CYP2D6 = biological target: T2, CYP2D6 (Homo sapiens, UniProt P10635); assay: Inhibition of human liver microsomal CYP2D6; type: in vitro ADME; conditions: human liver microsomes, 10 μM test substance; read-out: Relative inhibition rate (%) CYP2D6
T2 construct: from tissue; host or cells: human liver microsomes
T2 sequence (P10635 whole entry): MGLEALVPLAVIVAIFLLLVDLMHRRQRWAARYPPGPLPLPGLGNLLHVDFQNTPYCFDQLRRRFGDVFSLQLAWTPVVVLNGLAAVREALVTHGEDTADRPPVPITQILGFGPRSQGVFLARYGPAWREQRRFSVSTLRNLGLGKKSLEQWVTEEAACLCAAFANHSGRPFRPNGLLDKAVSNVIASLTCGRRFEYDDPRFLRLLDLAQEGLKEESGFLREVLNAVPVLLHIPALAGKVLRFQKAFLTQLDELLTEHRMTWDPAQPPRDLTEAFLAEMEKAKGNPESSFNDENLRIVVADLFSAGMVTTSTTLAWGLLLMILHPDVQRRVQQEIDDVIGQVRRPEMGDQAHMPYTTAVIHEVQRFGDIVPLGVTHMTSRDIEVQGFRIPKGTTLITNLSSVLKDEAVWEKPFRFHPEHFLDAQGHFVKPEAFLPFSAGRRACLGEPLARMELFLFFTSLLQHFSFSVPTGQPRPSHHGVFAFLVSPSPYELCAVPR
Procedure: as §1

hTLR7 = biological target: T3, hTLR7 (Homo sapiens, UniProt Q9NYK1); assay: Agonistic activity on human TLR7 in HEK-Blue hTLR7 cells (QUANTI-Blue); type: cell-based; conditions: 24 h incubation, OD650, read-out: hTLR 7 EC50
T3 construct: expressed in transfected cells; host or cells: HEK-Blue hTLR7 cells
T3 sequence (Q9NYK1 27-1049): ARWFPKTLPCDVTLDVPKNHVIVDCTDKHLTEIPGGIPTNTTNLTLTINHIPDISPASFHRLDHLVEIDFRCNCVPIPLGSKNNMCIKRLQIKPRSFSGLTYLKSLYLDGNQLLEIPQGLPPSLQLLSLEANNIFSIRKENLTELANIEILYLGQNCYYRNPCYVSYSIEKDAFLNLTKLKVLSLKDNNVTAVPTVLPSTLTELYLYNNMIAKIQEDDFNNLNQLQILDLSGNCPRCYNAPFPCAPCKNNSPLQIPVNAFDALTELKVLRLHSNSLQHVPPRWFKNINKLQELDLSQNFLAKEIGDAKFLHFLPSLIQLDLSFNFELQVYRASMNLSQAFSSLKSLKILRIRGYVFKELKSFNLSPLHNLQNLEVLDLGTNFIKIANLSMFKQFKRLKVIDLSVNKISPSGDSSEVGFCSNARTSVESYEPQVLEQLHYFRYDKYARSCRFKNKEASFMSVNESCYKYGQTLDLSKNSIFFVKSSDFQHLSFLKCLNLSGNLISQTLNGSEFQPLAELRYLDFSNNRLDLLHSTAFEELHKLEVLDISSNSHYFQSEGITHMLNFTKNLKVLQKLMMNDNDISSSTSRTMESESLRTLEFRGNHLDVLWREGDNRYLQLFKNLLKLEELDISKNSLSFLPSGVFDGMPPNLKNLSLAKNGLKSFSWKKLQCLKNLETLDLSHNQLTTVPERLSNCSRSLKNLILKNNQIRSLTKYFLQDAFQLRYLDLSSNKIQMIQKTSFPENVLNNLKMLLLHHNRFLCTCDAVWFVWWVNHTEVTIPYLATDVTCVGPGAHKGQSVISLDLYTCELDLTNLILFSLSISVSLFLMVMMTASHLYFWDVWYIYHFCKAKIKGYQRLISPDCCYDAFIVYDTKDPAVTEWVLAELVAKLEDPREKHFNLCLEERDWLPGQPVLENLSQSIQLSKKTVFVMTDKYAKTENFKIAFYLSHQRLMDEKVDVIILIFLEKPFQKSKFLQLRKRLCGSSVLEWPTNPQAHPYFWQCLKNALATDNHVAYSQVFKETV
Procedure: as §2, §3
(§4) Activity of compounds: OD650 values were analyzed using GraphPad Prism software, and the compound dose-effect curves were fitted to calculate the EC50 values of the compounds.

CYP2C19 = biological target: T4, CYP2C19 (Homo sapiens, UniProt P33261); assay: Inhibition of human liver microsomal CYP2C19; type: in vitro ADME; conditions: human liver microsomes, 10 μM test substance; read-out: Relative inhibition rate (%) CYP2C19
T4 construct: from tissue; host or cells: human liver microsomes
T4 sequence (P33261 whole entry): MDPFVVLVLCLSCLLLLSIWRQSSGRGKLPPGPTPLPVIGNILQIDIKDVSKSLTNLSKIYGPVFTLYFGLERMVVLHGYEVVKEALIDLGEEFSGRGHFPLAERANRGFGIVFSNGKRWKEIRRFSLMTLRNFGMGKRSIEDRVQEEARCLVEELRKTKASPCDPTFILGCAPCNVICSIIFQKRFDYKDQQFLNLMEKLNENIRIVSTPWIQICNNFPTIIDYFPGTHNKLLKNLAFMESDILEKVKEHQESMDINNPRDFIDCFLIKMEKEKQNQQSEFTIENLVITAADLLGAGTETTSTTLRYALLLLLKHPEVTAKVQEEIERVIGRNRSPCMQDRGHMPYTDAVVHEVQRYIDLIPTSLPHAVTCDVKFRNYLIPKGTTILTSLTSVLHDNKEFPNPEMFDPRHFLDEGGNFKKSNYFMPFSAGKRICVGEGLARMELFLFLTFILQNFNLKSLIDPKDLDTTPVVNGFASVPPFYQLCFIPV
Procedure: as §1

hTLR8 = biological target: T5, hTLR8 (Homo sapiens, UniProt Q9NR97); assay: Agonistic activity on human TLR8 in HEK-Blue hTLR8 cells (QUANTI-Blue); type: cell-based; conditions: 24 h incubation, OD650, read-out: hTLR 8 EC50
T5 construct: expressed in transfected cells; host or cells: HEK-Blue hTLR8 cells
T5 sequence (Q9NR97 27-1041): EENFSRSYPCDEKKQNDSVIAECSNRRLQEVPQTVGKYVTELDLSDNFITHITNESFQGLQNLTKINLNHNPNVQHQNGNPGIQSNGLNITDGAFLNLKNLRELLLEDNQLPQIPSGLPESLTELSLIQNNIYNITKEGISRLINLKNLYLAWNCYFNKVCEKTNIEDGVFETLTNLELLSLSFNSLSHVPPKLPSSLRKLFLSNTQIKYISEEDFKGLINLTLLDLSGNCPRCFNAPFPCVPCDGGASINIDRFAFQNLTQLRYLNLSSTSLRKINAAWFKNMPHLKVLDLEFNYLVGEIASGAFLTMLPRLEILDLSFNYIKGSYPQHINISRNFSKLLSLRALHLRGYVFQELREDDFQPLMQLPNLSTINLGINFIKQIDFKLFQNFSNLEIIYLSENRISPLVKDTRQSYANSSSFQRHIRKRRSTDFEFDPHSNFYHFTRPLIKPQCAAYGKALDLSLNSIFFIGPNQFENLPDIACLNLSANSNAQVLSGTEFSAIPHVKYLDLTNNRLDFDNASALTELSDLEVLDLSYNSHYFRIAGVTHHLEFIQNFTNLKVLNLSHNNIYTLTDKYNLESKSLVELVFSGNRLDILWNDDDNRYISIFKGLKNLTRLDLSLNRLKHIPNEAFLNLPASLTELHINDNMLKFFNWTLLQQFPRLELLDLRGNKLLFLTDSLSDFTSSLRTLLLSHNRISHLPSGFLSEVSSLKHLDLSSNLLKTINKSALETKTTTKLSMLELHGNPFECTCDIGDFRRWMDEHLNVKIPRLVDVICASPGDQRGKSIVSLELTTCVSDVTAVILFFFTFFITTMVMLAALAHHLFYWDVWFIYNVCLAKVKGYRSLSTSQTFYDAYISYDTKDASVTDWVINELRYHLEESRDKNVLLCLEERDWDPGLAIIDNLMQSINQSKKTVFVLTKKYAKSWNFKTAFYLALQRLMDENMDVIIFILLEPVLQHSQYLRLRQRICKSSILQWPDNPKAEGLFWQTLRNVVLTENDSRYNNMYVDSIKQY
Procedure: as §2, §3, §4

CYP1A2 = biological target: T6, CYP1A2 (Homo sapiens, UniProt P05177); assay: Inhibition of human liver microsomal CYP1A2; type: in vitro ADME; conditions: human liver microsomes, 10 μM test substance; read-out: Relative inhibition rate (%) CYP1A2
T6 construct: from tissue; host or cells: human liver microsomes
T6 sequence (P05177 1-516): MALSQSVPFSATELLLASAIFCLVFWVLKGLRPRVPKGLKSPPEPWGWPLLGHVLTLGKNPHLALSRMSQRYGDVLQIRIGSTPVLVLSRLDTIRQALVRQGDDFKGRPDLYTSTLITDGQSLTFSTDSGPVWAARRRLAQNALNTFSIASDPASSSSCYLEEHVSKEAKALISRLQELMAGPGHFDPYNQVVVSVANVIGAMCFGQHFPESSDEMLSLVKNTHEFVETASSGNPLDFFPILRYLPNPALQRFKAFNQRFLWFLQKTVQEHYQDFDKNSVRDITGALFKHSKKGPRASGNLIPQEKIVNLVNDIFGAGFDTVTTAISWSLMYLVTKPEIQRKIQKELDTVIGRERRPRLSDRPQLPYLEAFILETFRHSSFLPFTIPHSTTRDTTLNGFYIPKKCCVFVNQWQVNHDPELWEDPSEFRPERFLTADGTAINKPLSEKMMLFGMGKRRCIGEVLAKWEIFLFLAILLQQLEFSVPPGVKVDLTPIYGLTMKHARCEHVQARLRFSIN
Procedure: as §1

[2] = probe Midazolam, substrate Midazolam, read-out: Relative inhibition rate (%) CYP3A4 (Midazolam)
[3] = probe Testosterone, substrate Testosterone, read-out: Relative inhibition rate (%) CYP3A4 (Testosterone)

T1 sequence (P08684 whole entry): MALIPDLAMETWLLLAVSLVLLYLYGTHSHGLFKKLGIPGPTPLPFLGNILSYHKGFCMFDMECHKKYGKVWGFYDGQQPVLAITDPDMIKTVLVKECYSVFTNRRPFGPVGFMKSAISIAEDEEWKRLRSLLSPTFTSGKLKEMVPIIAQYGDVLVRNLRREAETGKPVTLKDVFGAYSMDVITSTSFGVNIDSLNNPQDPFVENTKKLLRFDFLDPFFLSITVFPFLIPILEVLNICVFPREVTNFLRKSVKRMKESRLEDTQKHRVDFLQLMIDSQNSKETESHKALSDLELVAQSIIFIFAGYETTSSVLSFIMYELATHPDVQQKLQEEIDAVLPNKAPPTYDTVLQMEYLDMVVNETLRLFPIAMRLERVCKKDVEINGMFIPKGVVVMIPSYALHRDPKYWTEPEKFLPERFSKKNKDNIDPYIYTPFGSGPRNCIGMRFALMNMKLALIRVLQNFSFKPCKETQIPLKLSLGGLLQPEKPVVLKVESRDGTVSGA

Row | SMILES | inhibition at 10 µM (CYP3A4; [2]) | inhibition at 10 µM (CYP3A4; [3]) | inhibition at 10 µM (CYP2D6) | EC50 (hTLR7) | inhibition at 10 µM (CYP2C19) | EC50 (hTLR8) | inhibition at 10 µM (CYP1A2) | CC50 at 24 h [1]
1 | CCCCN(C)Cc1c[nH]c(=O)cc1-c1ccc2c(N[C@@](C)(CO)CCCC)nc(N)nc2c1 [Example 36, (R)-4-(2-Amino-4-((1-hydroxy-2-methylhexan-2-yl)amino)quinazolin-7-yl)-5-((butyl(methyl)amino)methyl)pyridin-2(1H)-one] | 25.9% | 7.5% | 20.1% | > 100 µM | 7% | 0.066 µM | 9% | > 100 µM
2 | CCCC[C@](C)(CO)Nc1nc(N)nc2cc(-c3cc(=O)[nH]cc3COC)cnc12 [Example 51, (R)-4-(2-Amino-4-((1-hydroxy-2-methylhexan-2-yl)amino)pyrido[3,2-d]pyrimidin-7-yl)-5-(methoxymethyl)pyridin-2(1H)-one] | 7.4% | 34.1% | 9.6% | > 100 µM | 22.1% | 0.012 µM | 11.1% | > 100 µM
3 | CCCC[C@](C)(CO)Nc1nc(N)nc2cc(-c3cc(=O)[nH]cc3CN(C)C)cnc12 [Example 50, (R)-4-(2-Amino-4-((1-hydroxy-2-methylhexan-2-yl)amino)pyrido[3,2-d]pyrimidin-7-yl)-5-((dimethylamino)methyl)pyridin-2(1H)-one] | 13.7% | 11.6% | 9.7% | > 100 µM | 11.4% | 0.016 µM | 10.7% | > 100 µM
4 | CCCC[C@](C)(CO)Nc1nc(N)nc2cc(-c3cc(=O)[nH]cc3CN(C)CCOC)ccc12 [Example 54, (R)-4-(2-Amino-4-((1-hydroxy-2-methylhexan-2-yl)amino)quinazolin-7-yl)-5-(((2-methoxyethyl)(methyl)amino)methyl)pyridin-2(1H)-one] | 22.5% | 8.9% | 12.5% | > 100 µM | 0.8% | 0.106 µM | 7.9% | > 100 µM

Now from value to compound, other results behind:

Row | inhibition at 10 µM (CYP3A4; [2]) | inhibition at 10 µM (CYP3A4; [3]) | inhibition at 10 µM (CYP2D6) | EC50 (hTLR7) | inhibition at 10 µM (CYP2C19) | EC50 (hTLR8) | inhibition at 10 µM (CYP1A2) | SMILES | CC50 at 24 h [1]
5 | 38.6% | 17.1% | 19.1% | > 100 µM | 17% | 0.039 µM | 9.1% | CCCC[C@](C)(CO)Nc1nc(N)nc2cc(-c3cc(=O)n(C)cc3CN(C)CCOC)ccc12 [Example 55, (R)-4-(2-Amino-4-((1-hydroxy-2-methylhexan-2-yl)amino)quinazolin-7-yl)-5-(((2-methoxyethyl)(methyl)amino)methyl)-1-methylpyridin-2(1H)-one] | > 100 µM
6 | 17.6% | 8.8% | 13.8% | > 100 µM | 2.4% | 0.077 µM | 8.9% | CCCC[C@](C)(CO)Nc1nc(N)nc2cc(-c3cc(=O)n(C)cc3CN(C)CCO)ccc12 [Example 64, (R)-4-(2-Amino-4-((1-hydroxy-2-methylhexan-2-yl)amino)quinazolin-7-yl)-5-(((2-hydroxyethyl)(methyl)amino)methyl)-1-methylpyridin-2(1H)-one] | > 100 µM
7 | 33.6% | 15.6% | 31.7% | 11.1 µM | 10.4% | 0.025 µM | 10.7% | CCCCN(C)Cc1cn(C)c(=O)cc1-c1ccc2c(N[C@@](C)(CO)CCCC)nc(N)nc2c1 [Example 56, (R)-4-(2-Amino-4-((1-hydroxy-2-methylhexan-2-yl)amino)quinazolin-7-yl)-5-((butyl(methyl)amino)methyl)-1-methylpyridin-2(1H)-one] | 

From patent US20250163051A1, “PYRIMIDO AROMATIC RING COMPOUND AND USE THEREOF IN DRUG” (SUNSHINE LAKE PHARMA CO., LTD., priority 2022, published 2025)
